The test system of series [1] is serine hydrolases in the mouse brain proteome (MBP). The series is described as follows: Multiplex ABPP in mouse brain proteome. It counts as biochemical. The protocol:
K = [L][P] = 0.5 [L]T (FP50 − 0.5 [L]T) = FP − 0.5 [L] […]
Mouse brain sample preparation
Mouse tissues were isolated according to guidelines approved by the ethical committee of Leiden University. Male mouse brain (27 weeks old) was homogenized with glass beads (2x 1 min, bullet blender, speed 8) using cold lysis buffer (20 mM Hepes pH 7.2, 1 mM MgCl 2, 2 U/mL Benzonase). The membrane and cytosol were separated by centrifugation. The membrane fraction was resuspended in Hepes/DTT buffer. Protein concentration was determined with Bradford Assay, and samples were diluted to a final concentration of 2.0 mg/mL. Samples were snap -frozen in liquid nitrogen and stored at -80 °C until further use.
Lysate (19 µL, 2 µg/µL) was thawed on ice. For comparative ABPP (irreversible probes), 1 µL of probe (20x stock in DMSO) or pure DMSO was added to the sample, vortexed briefly, and in cubated for 30 minutes at RT. For competitive ABPP (reversible probes), 0.5 µL of the reversible probe (40x stock in DMSO) or pure DMSO (as vehicle) was added to the sample, vortexed briefly, and incubated for 30 […]
minutes at RT. Subsequently, 0.5 µL MB064 (40x stock in DMSO) was added to the proteome sample, vortexed briefly, and incubated for 10 minutes at RT, after which 0.5 µL FP-Bodipy-FL (40x stock in DMSO) was added, vortexed briefly and incubated for 10 minutes at RT. The final volume was 20 - 20.5 µL (5 - 7.5% DMSO). The reaction was quenched by the addition of 7.5 µL of 4*Laemmli-buffer (final concentrations: 60 mM Tris (pH 6.8), 2% (w/v) SDS, 10% (v/v) glycerol, 1.25% (v/v) β-mercaptoethanol, 0.01% (v/v) bromophenol blue). 10 µL (14 µg protein) of the quenched reaction mixture was resolved on 10% acrylamide SDS-PAGE (180 V, 75 min). Fluorescence was measured using a Biorad ChemiDoc MP system (fluorescence channels Cy2, Cy3, Cy5). Gels were then stained using coomassie staining and imaged for protein loading control. Labeling of the respective proteins via MB064 and FP-BODIPY was visualized in two separate channels. […]
Activity based protein profiling (ABPP)
PBMCs were thawed, washed with 1 x PBS and equal amounts of cells were exposed to DMSO (D2650; Sigma-Aldrich) or MAGL inhibitor PF (PF-06795071) in DMSO for 30 min at room temperature with concentrations ranging from 1 nM to 1000 nM. Cells were washed with 1 x PBS and lysed in ice -cold lysis buffer (ab156035; Abcam), lysates were centrifuged at 14,000 x g for 15 minutes at 4°C and supernatants were collected. For ABPP experiments, cell lysates containing equal amounts of protein were incubated with the appropriate concentration of activity -based probe for 30 min at room temperature. The reaction was quenched for 30 min by adding SDS -PAGE loading buffer (NP0007, Thermo). Samples were then separated by SDS-PAGE and bands were detected ChemiDoc Imager (Bio-Rad Laboratories). Following detection, gels were stained with SimplyBlue™ SafeStain (LC6060, Thermo) for 1 hour with gentle agitation and excess stain was removed by destaining in ddH2O for 1 h with gentle agitation. Gels were imaged and protein bands were quantified using Image Lab software (Bio-Rad Laboratories).

In a further series the target is T1, cMAGL (Macaca fascicularis, UniProt A0A2K5V664).
T1 sequence (A0A2K5V664 11-297): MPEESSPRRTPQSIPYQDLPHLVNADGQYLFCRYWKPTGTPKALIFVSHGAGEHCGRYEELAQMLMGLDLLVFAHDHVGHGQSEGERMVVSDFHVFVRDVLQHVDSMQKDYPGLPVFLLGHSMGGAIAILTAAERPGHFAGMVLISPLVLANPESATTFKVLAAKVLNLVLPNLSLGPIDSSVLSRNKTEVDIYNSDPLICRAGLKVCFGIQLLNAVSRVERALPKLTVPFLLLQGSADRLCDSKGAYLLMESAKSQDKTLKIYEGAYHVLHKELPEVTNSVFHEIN
Description: Native MS (RapidFire) 2-AG substrate assay, purified cynomolgus monkey MAGL. The conditions noted are these: purified cynomolgus monkey MAGL, native MS substrate assay; read-out: IC50 cMAGL. The series is classed as biochemical. The protocol:
(§1) In vitro MAGL Inhibition Assay
(§2) Compounds were profiled for MAGL inhibitory activity by determining the enzymatic activity by following the hydrolysis of the natural substrate 2-arachidonoylglycerol (2-AG), resulting in arachidonic acid, which can be followed by mass spectrometry. The 2-AG assay was carried out in 384 well assay plates (PP, Greiner Cat# 784201) in a total volume of 20 µL. Compound dilutions were made in 100% DMSO (VWR Chemicals 23500.297) in a polypropylene plate in 3-fold dilution steps to give a final concentration range in the assay from 12.5 µM to 0.8 pM. 0.25µL compound dilutions (100% DMSO) were added to 9 µL MAGL in assay buffer (50 mM TRIS (GIBCO, 15567-027), 1 mM EDTA (Fluka, 03690-100 mL), 0.01% (v/v) Tween. After shaking, the plate was incubated for 15 min at RT. To start the reaction, 10 µL 2-arachidonoylglycerol in assay buffer was added. The final concentrations in the assay were 50 pM MAGL and 8 µM 2-arachidonoylglyerol. After shaking and 30 min incubation at RT, the reaction was quenched by the addition of 40µL of ACN containing 4µM of d8-arachidonic acid. The amount of arachidonic acid was traced by an online SPE system (Agilent Rapidfire) coupled to a triple quadrupole mass spectrometer (Agilent 6460). A C18 SPE cartridge (G9205A) was used in an ACN/water liquid setup. The mass spectrometer was operated in negative electrospray mode following the mass transitions 303.1 → 259.1 for arachidonic acid and 311.1 → 267.0 for d8-arachidonic acid. The activity of the compounds was calculated based on the ratio of intensities [arachidonic acid / d8-arachidonic acid]. The lowest IC50 value that can be determined with high accuracy is approximately 0.025 nM.

For a further series, the target named is T2, rMAGL (Rattus norvegicus, UniProt Q8R431).
T2 sequence (Q8R431 1-303): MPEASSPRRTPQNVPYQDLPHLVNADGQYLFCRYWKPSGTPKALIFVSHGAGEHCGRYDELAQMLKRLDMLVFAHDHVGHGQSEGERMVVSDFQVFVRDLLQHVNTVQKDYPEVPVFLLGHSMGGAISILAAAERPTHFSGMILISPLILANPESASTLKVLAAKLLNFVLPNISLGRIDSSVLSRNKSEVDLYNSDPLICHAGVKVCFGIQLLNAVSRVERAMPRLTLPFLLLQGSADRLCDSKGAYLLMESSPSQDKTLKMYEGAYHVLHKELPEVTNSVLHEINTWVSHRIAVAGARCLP
Description: Native MS (RapidFire) 2-AG substrate assay, purified rat MAGL. The series is classed as biochemical. As to conditions: for loss of potency against rat or cynomolgus monkey orthologs: rat or cynomolgus monkey MAGL. Here is the method:
as §1, §2

Series [2] concerns the target T3, MAGL (Homo sapiens, UniProt Q99685).
T3 sequence (Q99685 1-303): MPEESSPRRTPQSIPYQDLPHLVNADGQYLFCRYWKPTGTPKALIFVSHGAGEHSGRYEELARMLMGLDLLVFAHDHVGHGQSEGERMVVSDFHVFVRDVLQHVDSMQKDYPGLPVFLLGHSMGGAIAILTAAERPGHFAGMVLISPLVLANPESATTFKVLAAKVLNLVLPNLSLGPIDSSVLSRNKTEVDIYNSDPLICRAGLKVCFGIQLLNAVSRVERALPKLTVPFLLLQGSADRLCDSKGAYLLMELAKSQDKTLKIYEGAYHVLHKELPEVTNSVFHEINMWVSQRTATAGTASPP
The series is described as follows: Native MS (RapidFire) 2-AG substrate assay, purified human MAGL. It counts as biochemical. The conditions noted are these: purified human MAGL, native MS substrate assay; IC50 of covalent inhibitors time-dependent; read-out: IC50 hMAGL. The protocol:
as §1, §2

A further series concerns the target T4, mMAGL (Mus musculus, UniProt O35678).
T4 sequence (O35678 1-303): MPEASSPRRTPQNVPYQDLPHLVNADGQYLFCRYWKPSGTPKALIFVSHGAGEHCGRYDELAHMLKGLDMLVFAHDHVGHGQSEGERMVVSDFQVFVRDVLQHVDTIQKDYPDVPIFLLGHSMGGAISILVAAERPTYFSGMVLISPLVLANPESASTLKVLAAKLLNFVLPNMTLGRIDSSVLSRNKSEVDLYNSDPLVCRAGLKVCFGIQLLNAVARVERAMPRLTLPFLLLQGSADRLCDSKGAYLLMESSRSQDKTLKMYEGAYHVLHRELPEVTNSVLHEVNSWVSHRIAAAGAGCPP
The series is described as follows: Native MS (RapidFire) 2-AG substrate assay, purified mouse MAGL. The series is classed as biochemical. As to conditions: purified mouse MAGL, native MS substrate assay; read-out: IC50 mMAGL. Here is the method: as §1, §2

Series [3] can be described thus: High throughput kinetic solubility measurement. It counts as physicochemical. As to conditions: phosphate buffer, pH 6.5, aqueous buffer, kinetic from dmso stock.
The target in series [4] is T3, MAGL. Also on record: method as in earlier work. The conditions noted are these: Table S2, literature compounds; ref (1), (6)-(12) as indicated per compound; cited from earlier work.
In series [5] the target is T5, NanoLuc luciferase MAGL fusion protein (Homo sapiens, UniProt Q99685).
T5 sequence (Q99685 1-303): T3 sequence (Q99685 1-303)
The series is described as follows: Cellular MAGL NanoBRET target engagement assay in live HEK293 cells. The series is classed as cell-based. As to conditions: live HEK293 cells; read-out: IC50 nanoBRET. Here is the method: This assay was performed as first described before.20
Compounds were profiled by a novel cellular MAGL NanoBRET™ Target Engagement assay, which measures the apparent affinity of test compounds by competitive displacement of a Roche -developed Tracer (WO2021058443, Example 2 121, or probe 4a, respectively), reversibly bound to a NanoLuc ® luciferase MAGL fusion protein in cells.
A HEK293A stable cell line expressing NanoLuc_MAGL was established at Roche and assigned as HEK293A_NanoLuc_MAGL clone #43. A fixed concentration of tracer is added to cells expressing the NanoLuc®_MAGL fusion protein to generate a BRET reporter complex. The introduction of competing compounds results in a dose -dependent decrease in NanoBRET™ energy transfer, which allows quantification of the intracellular affinity of the target protein for the test compound.
HEK293A_NanoLuc_MAGL clone #43 cells were cultured in DMEM (Gibco 31966) with 10% FBS and 800 ug/ml G418. The NanoBRET assay was performed by seeding 5000 cells/well in Costar low - volume white 384-well plate in assay buffer (1% FBS in HBSS), followed by adding the tracer (50 nM Example 21 or 100 nM 4a final concentration) and serial dilutions of test compounds. After 2 hours of incubation, Nanoluciferase substrates and extracellular inhibitors were added following the manufacturer's protocol (Promega, #N2520), and the NanoBRET signaling were quantified with the Paradigm (Molecular Devices).

For another series, the system named is rat MAGL. As to conditions: cited from earlier work.
[6] abbreviates: purified rat MAGL, native MS substrate assay, read-out: IC50 rMAGL.

These results are taken from paper PMC11951083, “Highly Specific Miniaturized Fluorescent Monoacylglycerol Lipase Probes Enable Translational Research” (Journal of the American Chemical Society, 2025).

Values after ≈ are worked out from the molar mass of the structure shown. Where two headings read alike, the source gives them in different places.

Broadly, the IC50 is the concentration at which inhibition is half-maximal. As a reminder, the kinetic solubility is solubility judged after dilution from a stock solution rather than from solid.

As for `O=C(O[C@H](CO)C(F)(F)F)N1CC2(CC(CC3=C4C=CC(c5ccc[nH]5)=[N+]4[B-](F)(F)n4cccc43)C2)C1` [Compound 1a], the “labeling selectivity in ABPP (covalent probes)” value in series [1] (mouse brain homogenates, broad range of concentrations) is “only selective irreversible labeling of the two MAGL isoforms”. Besides, the IC50 on cMAGL was 0.4 nM; on rMAGL (setting [6]), 0.44 nM; on MAGL [2], 0.47 nM; on mMAGL it was 0.31 nM. This compound registered a kinetic solubility in series [3] of less than 1 µg/mL.

As for `CN1/C(=C/C=C/C=C/C2=[N+](CCCCCC(=O)NCc3cn(CCOc4ccc(C(c5ccc(Cl)cc5)N5CCN(C(=O)OC(C(F)(F)F)C(F)(F)F)CC5)cc4)nn3)c3ccccc3C2(C)C)C(C)(C)c2ccccc21` (stereo not shown) [LEI-463], the IC50 on MAGL [4] was roughly 10 nM.

Take `O=C1NC2(CO1)CN(C(=O)N1CC3(CCC(CC4=C5C=CC=[N+]5[B-](F)(F)n5cccc54)CC3)C1)C2` [Compound 3]: the IC50 at cMAGL was determined as 3.86 nM; on rMAGL (SI Table 1, read-out: IC50 against purified MAGL ± SEM, Rat), 3.54 ± 0.37 nM; on MAGL [2], 0.83 nM; in series [5], 557 nM; at mMAGL it was 0.96 nM. The “loss of potency against rat or cynomolgus monkey orthologs” value on rMAGL is given as “less than 4 fold”. The kinetic solubility in series [3] was 139 µg/mL (≈ 288 µM).

On to `O=C(N1CC2(CC(CC3=C4C=CC(c5ccc[nH]5)=[N+]4[B-](F)(F)n4cccc43)C2)C1)N1CC2(CC(n3cnc(C4CC4)n3)C2)C1` [Compound 5a], for which the “selectivity in competitive ABPP (reversible probes)” value in [1] (mouse brain proteome, membrane and cytosolic fraction, 1 μM) is “no other potential off-target detectable”. Further, the half-inhibitory concentration (IC50) on cMAGL worked out at 0.77 nM; at rMAGL (setting [6]) it was 2.23 nM; at MAGL [2], 0.73 nM; on mMAGL, 0.9 nM. On rMAGL, the “loss of potency against rat or cynomolgus monkey orthologs” value is recorded as “less than 4 fold”. In series [3], this compound registered a solubility (kinetic) of less than 0.1 µg/mL.

On to `O=C(Oc1ccc([N+](=O)[O-])cc1)N1CCC(C(O)(c2ccc3c(c2)OCO3)c2ccc3c(c2)OCO3)CC1` [JZL-184], for which the “potency on rat MAGL” value in the series with rat MAGL is reported as “severely reduced potency”.
